“Also recorded” adds a separate entry of the source.
Legend:
mTOR = assay: Immunoblot of p-S6 and p-eIF4G in cell lysates (mTOR activity); type: cell-based, human
Experimental: (a) SN12C-CSCG and SN12C-VHLshRNA cell were treated with vehicle, 1 nM or 10 nM of CCI-779 and lysed 24 hours later. Lysates were subjected to immunoblotting for HIF-1α, HIF-2α, GLUT-1, CA-IX, p-eIF4G, p-S6 Ribosomal protein. Equal protein loading was verified using anti-β-actin antibody. (b) HIF-1α expression was probed by immunoblotting in SN12C-MSCV-5′TOP-HIF-1α cDNA (left panel) and SN12C-MSCV-HIF-1α cDNA (tight panel) post 24 hours of vehicle, 1 nM or 10 nM of CCI-779.
FIGS. 4A-4C. Rescue of CCI-779 growth suppression by HIF-1-α and HIF-2-α prolyl hydcroxylase mutants. […] Cell growth was measured by cell counts (n=3). […]
(§1) Cells and xenograft tumors were lysed in ECB lysis buffer (see, e.g. Kondo et al., Cancer Cell 1, 237-46 (2002)) or high-detergent buffer (2% SDS), (see, e.g. Chen et al., Nat Med 10, 33-9 (2004)), respectively, supplemented with complete protease and phosphatase inhibitor cocktails (Calbiochem). […] Bound antibody was detected using enhanced chemiluminescence (ECL, Amersham). For VEGF ELISA quantification, cells were plated in 6 well plates (1×10^5 per well). […] Thirty-six hours later, VEGF ELISA (R&D Systems) was performed according to the manufacturer's instructions, using a Fisher Plate reader. […]

[1] = test system: HIF-1α, HIF-2α, GLUT-1, CA-IX; assay: Immunoblot of HIF and target proteins in VHL knockdown cells expressing HIF-1α (P564A) / HIF-2α (P405A; P531A) mutants; type: cell-based, human; settings: SN12C VHL knockdown cells with HIF mutants lacking 5'TOP, 24 hours
Experimental: FIGS. 4A-4C. Rescue of CCI-779 growth suppression by HIF-1-α and HIF-2-α prolyl hydcroxylase mutants. SN12C-CSCG-VHLshRNA cells stably infected with the prolyl hydroxylation defective cDNA mutants p-Babe-puro-HA-HIF-1α (P564A), HIF-2α (P405A; P531A) or backbone vector were treated with CCI-779 or vehicle and harvested 24 hours later. (a) Lysates were subjected to immunoblotting for HIF-1α, HIF-2α, GLUT-1, CA-IX, p-eIF4G, p-S6 and β-Actin as loading control. (b) SN12C-VHLshRNA, SN12C-VHLshRNA-HIF-1α mutant, SN12C-VHLshRNA-HIF-2α mutant cells (1×10^5) were cultured in 10% serum rich media, in the presence of vehicle, 1 or 10 nM of CCI-779 for 5 days. Cell growth was measured by cell counts (n=3). […]
as §1

## CO[C@H]1C[C@@H]2CC[C@@H](C)[C@@](O)(O2)C(=O)C(=O)N2CCCC[C@H]2C(=O)O[C@H]([C@H](C)C[C@@H]2CC[C@@H](OC(=O)C(C)(CO)CO)[C@H](OC)C2)CC(=O)[C@H](C)/C=C(\C)[C@@H](O)[C@@H](OC)C(=O)[C@H](C)C[C@H](C)/C=C/C=C/C=C/1C [CCI-779]
mTOR; VHL knockdown cells expressing HIF-1α/HIF-2α mutants
  phosphorylation of S6 and eIF4G: decreased phosphorylation
mTOR; parental and VHL knockdown cells, 1 and 10 nM CCI-779
  phosphorylation of S6 and eIF4G: reduced phosphorylation; also recorded: reduction in phosphorylation
[1]
  levels of HIF mutants and downstream targets GLUT-1 and CA-IX: stably expressed in the presence or absence of CCI-779; also recorded: not affected

— US9261498B2, “Biomarker for sensitivity to mTOR inhibitor therapy in kidney cancer” (The Regents of the University of California, priority 2005, dated 2016)
